The text below walks through data of patent US6582351B1, “Imidazopyridinone derivatives and their use as phosphodiesterase inhibitors” (Fujisawa Pharmaceutical Co., Ltd., priority 1999, dated 2003).

One may read the IC50 as the concentration needed to halve the response being measured. A low value points to inhibition by little substance. By melting point is commonly meant the temperature, or range, at which the solid turns liquid.

The target in one series is T1, human platelet PDE-V (Homo sapiens, UniProt O76074).
T1 construct: Human platelet cGMP-PDE was separated from other isozymes in human platelets; from tissue; host or cells: human platelets
Nature of the series: cGMP-Phosphodiesterase (PDE) assay; enzymatic inhibitory test against human platelet PDE-V. The format is biochemical. As to conditions: 0.1 μM [3H]-cGMP substrate, 30° C., 10 minutes. The protocol: [II] Test Method: cGMP-Phosphodiesterase (PDE) Assay
Human platelet cGMP-PDE was separated from other isozymes in human platelets by a modification of the method of Thompson et. al. (see Cyclic Nucleotide Phosphodiesterase (PDE), in Methods of Enzymatic analysis, Vol 4, p127-234, 1984). Specific inhibitory activity of PDE-V was measured by following procedure. In enzyme inhibition assays, the test compounds were dissolved in DMSO and then diluted with assay buffer (50 mM Tris-HCl, 0.077 mg/ml dithiothreitol and 10 mg/ml snake venom, 1 mM EGTA, pH 8.0), at final concentrations ranging from 10^−10 to 10^−6 M. Assays were performed at 0.1 μM substrate ([^3H]-cGMP) concentration, at 30° C. for 10 minutes using enzyme dilutions which gave 10-20% hydrolysis of substrate. Each assay was initiated by addition of substrate and terminated by addition of anion exchange resin (Dowex® 1-X8, […]) followed by centrifugation for 10 minutes (3000 rpm, at 4° C.). Radioactivity of supernatant ([^3H]-GMP) was assayed by liquid scintillation counting.

For `COc1ccc(Cn2c(=O)n(-c3ccc4[nH]cnc4c3)c3ccc(C(F)(F)F)cc32)cc1Cl` [Example 2(21), 1-(1H-Benzimidazol-5-yl)-3-(3-chloro-4-methoxybenzyl)-5-trifluoromethyl-2,3-dihydro-1H-benzimidazol-2-one], the melting point fell in the range of 158 to 160 °C. Also, the IC50 against human platelet PDE-V is under 10 nM. In the same order, the values of `COc1ccc(Cn2c(=O)n([C@H]3CC[C@H](O)CC3)c3ccc(C#N)cc32)cc1C#N` [Example 2(81), 5-Cyano-3-(3-cyano-4-methoxybenzyl)-1-(trans-4-hydroxycyclohexyl)-2,3-dihydro-1H-benzimidazol-2-one] are 191 to 193 °C and under 10 nM.

`COc1ccc(Cn2c(=O)n([C@H]3CC[C@H](O)CC3)c3ccc([N+](=O)[O-])cc32)cc1[N+](=O)[O-]` [Example 2(109), 1-(trans-4-Hydroxycyclohexyl)-3-(4-methoxy-3-nitrobenzyl)-5-nitro-1,3-dihydro-2H-benzimidazol-2-one] came in with an IC50 on human platelet PDE-V of under 10 nM. `COc1ccc(Cn2c(=O)n([C@H](C)CO)c3ncc(C(F)(F)F)cc32)cc1Cl` [Example 4(2), 1-(3-Chloro-4-methoxybenzyl)-3-((R)-2-hydroxy-1-methylethyl)-6-trifluoromethyl-2,3-dihydro-1H-imidazo[4,5-b]pyridin-2-one] registered a melting point of 154.5 to 155 °C. This molecule registered an IC50 against human platelet PDE-V of under 10 nM. For `COc1ccc(Cn2c(=O)n(C3CCN(C)CC3)c3ccc(C#N)cc32)cc1Cl` [Example 28, 3-(3-chloro-4-methoxybenzyl)-5-cyano-1-(1-methylpiperidin-4-yl)-2,3-dihydro-1H-benzimidazole-2-one], at human platelet PDE-V, the IC50 was under 10 nM. On to `COc1ccc(Cn2c(=O)n([C@H]3CC[C@H](O)CC3)c3ncc(C#N)cc32)cc1Cl` [Example 33, 1-(3-chloro-4-methoxybenzyl)-6-cyano-3-(trans-4-hydroxycyclohexyl)-2,3-dihydro-1H-imidazo[4,5-b]pyridin-2-one], for which the half-maximal inhibitory concentration (IC50) against human platelet PDE-V is under 10 nM.
